# In patent US20020091086A1, “Peptides that block viral infectivity and methods of use thereof” (priority 1999, published 2002):
# Peptide text beside a SMILES is read from it.
# How the values were obtained:
# [1] = system: HIV-1 RNA; assay: Northern blot of HIV-1 RNA in infected H-9 cells; type: cell-based
# Method: To study proviral DNA and viral RNA synthesis, DNA and RNA from HIV-1 infected H-9 cells cultured in the presence of a small peptide were prepared at various time points (0-48 h).
# By Northern blot analysis, three RNA bands (9.2, 4.3, 2.0 kb) were detected 24-48 h after infection. The 9.2 kb RNA acts as both the genomic RNA and as the mRNA for the gag and pol genes. The 4.3 kb singly-spliced RNA represents at least the env gene, and the multiply-spliced 2 kb RNA encodes for the regulatory genes.
# [2] = system: HIV-1 SF-2 virus strain; assay: stability in human blood and plasma by HIV-1 replication assay in HUT78 cells; type: in vitro ADME; settings: incubated 1, 2 and 4 hours at 37° C. in human blood or plasma; final 20 μM or 100 μM; p24 day 7 and 14
# Method: This example describes several studies that were performed to access the stability of small peptides in human blood and plasma. Accordingly, human blood was taken freshly and treated with EDTA. Plasma was separated by centrifuging at 2,500 rpm for 20 minutes. GPG-NH2 was added into blood or plasma at concentrations of 10 mM or 50 mM followed by incubation in 37° C. for 1, 2 and 4 hours, respectively. […] After incubation in 37° C., the GPG-NH2 containing blood was centrifuged at 2,500 rpm for 20 minutes to isolate plasma. Some of the plasma samples were treated with CaCl2 at concentration of 5 mM in 37° C. for 10 minutes followed by centrifuging at 13,000 rpm for 30 minutes and the supernatant are referred to as CaCl2 treated plasma. Then all the GPG-NH2 containing plasma samples were diluted in RPMI medium to give the final concentrations 20 μM or 100 μM of GPG-NH2 (500 fold dilutions) and were then used in HIV-1 replication assays.
# The replication assays were performed on HUT78 cells and the HIV-1 SF-2 virus strain was used. Briefly, approximately 200,000 cells were resuspended in the diluted GPG-amide containing medium, plasma, or plasma from blood. The GPG-NH2 containing medium, plasma, or plasma from blood was incubated with the cells for either 1 hr, 2 hr, or 4 hr at 37° C. Subsequently, SF-2 virus was added at 25 TCID50. […]
structure (smiles),measurement,setting,value
"NCC(=O)N1CCC[C@H]1C(=O)NCC(N)=O [GPG-NH2, glycyl-prolyl-glycine amide] (H-Gly-Pro-Gly-NH2)","expression of HIV-1 RNAs (9.2, 4.3, 2.0 kb)","[1]; 20 μM, up to 48 h post infection",no inhibitory effect
same,HIV-1 RNA,"[1]; 200 μM and 2,000 μM, 48 h after infection",a reduction of HIV-1 RNA was noticed
same,"ability to inhibit HIV-1 after incubation in medium, plasma or blood",[2],No significant difference
